Format in all cases: biochemical
Test [1] concerns the target T1, PfATP4 (Plasmodium falciparum, UniProt A0A143ZZK9).
T1 construct: gene ATP4; native PfATP4 in P. falciparum membrane preparations (3D7)
Nature of the test: cipargamin-sensitive Na+-dependent ATPase activity (Pi release) in parasite membranes.

Test [2] deals with T1, PfATP4. Put plainly: cipargamin-sensitive Na+-dependent ATPase activity (Pi release) in parasite membranes; resistance mutation S374R.
Test [3] has as its target T2, PfATP4 (Plasmodium falciparum, UniProt A0A143ZZK9, S374R).
T2 construct: gene ATP4; PfATP4 S374R in membranes from B7 parasites
T2 sequence (A0A143ZZK9 1-1264 S374R): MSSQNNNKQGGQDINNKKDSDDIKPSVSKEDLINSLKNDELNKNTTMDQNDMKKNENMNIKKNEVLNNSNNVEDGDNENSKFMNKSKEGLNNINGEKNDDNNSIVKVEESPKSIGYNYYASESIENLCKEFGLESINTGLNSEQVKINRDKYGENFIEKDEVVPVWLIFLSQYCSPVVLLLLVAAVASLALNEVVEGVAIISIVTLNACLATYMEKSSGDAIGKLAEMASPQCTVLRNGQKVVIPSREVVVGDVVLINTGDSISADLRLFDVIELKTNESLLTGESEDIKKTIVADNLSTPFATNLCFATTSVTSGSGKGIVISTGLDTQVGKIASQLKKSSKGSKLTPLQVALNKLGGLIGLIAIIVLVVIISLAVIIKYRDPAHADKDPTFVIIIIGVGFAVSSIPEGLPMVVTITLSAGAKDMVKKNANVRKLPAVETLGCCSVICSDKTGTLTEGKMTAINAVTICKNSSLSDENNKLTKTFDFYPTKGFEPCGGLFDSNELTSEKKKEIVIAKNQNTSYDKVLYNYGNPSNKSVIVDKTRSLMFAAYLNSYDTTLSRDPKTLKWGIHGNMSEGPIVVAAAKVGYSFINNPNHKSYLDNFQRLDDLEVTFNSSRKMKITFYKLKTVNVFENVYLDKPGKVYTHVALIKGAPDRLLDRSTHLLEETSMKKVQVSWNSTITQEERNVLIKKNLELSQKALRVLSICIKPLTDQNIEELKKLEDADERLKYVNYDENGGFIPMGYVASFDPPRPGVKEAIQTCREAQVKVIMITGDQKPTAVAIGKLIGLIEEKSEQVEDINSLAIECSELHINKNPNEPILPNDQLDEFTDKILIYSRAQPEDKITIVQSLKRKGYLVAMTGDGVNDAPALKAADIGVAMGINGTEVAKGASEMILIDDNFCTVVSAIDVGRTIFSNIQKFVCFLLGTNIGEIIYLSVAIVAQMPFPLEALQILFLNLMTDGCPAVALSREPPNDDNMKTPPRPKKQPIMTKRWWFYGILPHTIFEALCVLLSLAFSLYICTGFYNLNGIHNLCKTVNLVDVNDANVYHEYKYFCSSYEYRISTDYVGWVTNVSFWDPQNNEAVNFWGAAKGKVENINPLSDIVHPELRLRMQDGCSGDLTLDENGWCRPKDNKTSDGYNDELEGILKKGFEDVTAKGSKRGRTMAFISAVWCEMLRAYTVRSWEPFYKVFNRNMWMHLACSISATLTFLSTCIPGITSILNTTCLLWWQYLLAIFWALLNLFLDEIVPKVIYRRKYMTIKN
Put plainly: cipargamin-sensitive Na+-dependent ATPase activity (Pi release) in membranes of resistant parasites.

Usually IC50 stands for the point on the concentration scale where inhibition reaches its midpoint. Read a high IC50 as a need for much substance. On PfATP4 [1], `Cc1nc(N[C@@H](C)c2ccccc2)c2ccccc2c1C#N` [MB10] registered an IC50 of 62 ± 9 nM. In the case of `CCC(CC)Nc1nc(C)c(C#N)c2ccccc12` [MB14, 3-methyl-1-(1-ethylpropylamino)isoquinoline-4-carbonitrile], the results for the IC50 against PfATP4 [2] and against PfATP4 [3] were 52 ± 16 nM and 429 ± 73 nM, respectively.
